Patent publication US6852673B2, “Herbicidal pyridine compounds” (BASF Aktiengesellschaft, priority 1998, dated 2005)

Columns and labels:
Type in all cases: in vivo
[1] = tested on: Abutilon theophrasti (ABUTH); assay: Pre-emergence herbicidal evaluation, velvetleaf
Excerpt: (§1) The pre-emergence herbicidal activity of the compounds of the present invention is exemplified by the following test in which the seeds of a variety of monocotyledonous and dicotyledonous plants are seperately mixed with potting soil and planted on top of approximately one inch of soil in separate pots. After planting, the pots are sprayed with the selected aqueous acetone solution containing test compound in sufficient quantity to provide the equivalent of about 0.0125 to 0.4 kg per hectare of test compound per pot. The treated pots are then placed on greenhouse benches, watered and cared for in accordance with conventional greenhouse procedures. From 2 to 4 weeks after treatment, the tests are terminated and each pot is examined and rated according to the rating system set forth below.

Stellaria media (STEME) [2] = assay: Pre-emergence herbicidal evaluation, chickweed
Excerpt: as §1

Setaria viridis (SETVI) [3] = assay: Pre-emergence herbicidal evaluation, green foxtail
Excerpt: as §1

Glycine max (GLXMA) = assay: Pre-emergence herbicidal evaluation, soyabeans
Excerpt: as §1

[4] = tested on: Alopecurus myosuroides (ALOMY); assay: Post-emergence herbicidal evaluation, black grass; settings: rated 2 to 4 weeks after treatment
Experimental: (§2) [table] [table] […] These acetone solutions are diluted with water and the resulting formulations applied at dosage levels equivalent of about 0.03 to 0.4 kg per hectare of test compound per pot. After spraying the plants are placed on greenhouse benches and are cared for in the usual manner, commensurate with conventional greenhouse practices. From 2 to 4 weeks after treatment, the seedling plants are examined and rated according to the rating system provided above. A rating 0 indicates growth as untreated control, a rating 9 indicates death.

Galium aparine (GALAP) [5] = assay: Post-emergence herbicidal evaluation, cleaver; settings: rated 2 to 4 weeks after treatment
Experimental: as §2

[6] = tested on: Ambrosia artemiisifolia (AMBEL); assay: Pre-emergence herbicidal evaluation, ragweed
Excerpt: as §1

[7] = tested on: Matricaria inodora (MATIN); assay: Pre-emergence herbicidal evaluation, mayweed
Excerpt: as §1

[8] = tested on: Triticum aestivum (TRZAW); assay: Pre-emergence herbicidal evaluation, winter wheat
Excerpt: as §1

Oryza sativum (ORYSA) [9] = assay: Post-emergence herbicidal evaluation, rice; settings: rated 2 to 4 weeks after treatment
Experimental: as §2

[10] = tested on: Digitaria sanguinalis (DIGSA); assay: Pre-emergence herbicidal evaluation, large crabgrass
Excerpt: as §1

[11] = tested on: Ipomoea hederacea (IPOHE); assay: Post-emergence herbicidal evaluation, morning glory; settings: rated 2 to 4 weeks after treatment
Experimental: as §2

[12] = tested on: Digitaria sanguinalis (DIGSA); assay: Post-emergence herbicidal evaluation, large crabgrass; settings: rated 2 to 4 weeks after treatment
Experimental: as §2

[13] = tested on: Triticum aestivum (TRZAW); assay: Post-emergence herbicidal evaluation, winter wheat; settings: rated 2 to 4 weeks after treatment
Experimental: as §2

[14] = tested on: Echinochloa grus galli (ECHCG); assay: Pre-emergence herbicidal evaluation, barnyard grass
Excerpt: as §1

[15] = tested on: Alopecurus myosuroides (ALOMY); assay: Pre-emergence herbicidal evaluation, black grass
Excerpt: as §1

Zea mays (ZEAMX) [16] = assay: Post-emergence herbicidal evaluation, maize; settings: rated 2 to 4 weeks after treatment
Experimental: as §2

Lamium purpureum (LAMPU) [17] = assay: Pre-emergence herbicidal evaluation, purple deadnettle
Excerpt: as §1

[18] = tested on: Ambrosia artemiisifolia (AMBEL); assay: Post-emergence herbicidal evaluation, ragweed; settings: rated 2 to 4 weeks after treatment
Experimental: as §2

Hordeum vulgare (HORVW) [19] = assay: Post-emergence herbicidal evaluation, winter barley; settings: rated 2 to 4 weeks after treatment
Experimental: as §2

Setaria viridis (SETVI) [20] = assay: Post-emergence herbicidal evaluation, green foxtail; settings: for SETVI rating: rated 2 to 4 weeks after treatment
Experimental: as §2

Oryza sativum (ORYSA) [21] = assay: Pre-emergence herbicidal evaluation, rice
Excerpt: as §1

[22] = tested on: Echinochloa grus galli (ECHCG); assay: Post-emergence herbicidal evaluation, barnyard grass; settings: rated 2 to 4 weeks after treatment
Experimental: as §2

weeds = assay: Post-emergence herbicidal evaluation, overall weed control; settings: in barley at crop selective doses
Experimental: as §2

[23] = tested on: Abutilon theophrasti (ABUTH); assay: Post-emergence herbicidal evaluation, velvetleaf; settings: rated 2 to 4 weeks after treatment
Experimental: as §2

Stellaria media (STEME) [24] = assay: Post-emergence herbicidal evaluation, chickweed; settings: rated 2 to 4 weeks after treatment
Experimental: as §2

[25] = tested on: Matricaria inodora (MATIN); assay: Post-emergence herbicidal evaluation, mayweed; settings: rated 2 to 4 weeks after treatment
Experimental: as §2

Zea mays (ZEAMX) [26] = assay: Pre-emergence herbicidal evaluation, maize
Excerpt: as §1

[27] = tested on: Ipomoea hederacea (IPOHE); assay: Pre-emergence herbicidal evaluation, morning glory
Excerpt: as §1

Hordeum vulgare (HORVW) [28] = assay: Pre-emergence herbicidal evaluation, winter barley
Excerpt: as §1

Galium aparine (GALAP) [29] = assay: Pre-emergence herbicidal evaluation, cleaver
Excerpt: as §1

Solanum nigrum (SOLNI) [30] = assay: Pre-emergence herbicidal evaluation, black nightshade
Excerpt: as §1

Lamium purpureum (LAMPU) [31] = assay: Post-emergence herbicidal evaluation, purple deadnettle; settings: rated 2 to 4 weeks after treatment
Experimental: as §2

Solanum nigrum (SOLNI) [32] = assay: Post-emergence herbicidal evaluation, black nightshade; settings: rated 2 to 4 weeks after treatment
Experimental: as §2

Cc1cc(OCC(F)(F)C(F)(F)F)nc(Oc2cc(C(F)(F)F)nn2C)c1 [Example 7]
7 (7 - Good herbicidal effect): ABUTH rating ([1]; dose 0.4 kg/ha) | STEME rating (Stellaria media (STEME) [2]; dose 0.1 kg/ha) | ECHCG rating ([14]; dose 0.4 kg/ha) | ECHCG rating ([22]; dose 0.1 kg/ha) | ECHCG rating ([22]; dose 0.4 kg/ha) | MATIN rating ([25]; dose 0.1 kg/ha)
effective: grass control such as Setaria virides (Setaria viridis (SETVI) [20]; in barley at crop selective doses) | broad-leaved weed control (weeds)
4 (4 - Injury): ALOMY rating ([4]; dose 0.1 kg/ha) | ECHCG rating ([14]; dose 0.1 kg/ha) | ALOMY rating ([15]; dose 0.1 kg/ha) | SETVI rating (Setaria viridis (SETVI) [20]; dose 0.1 kg/ha) | ECHCG rating ([22]; dose 0.03 kg/ha) | SOLNI rating (Solanum nigrum (SOLNI) [30]; dose 0.1 kg/ha)
0 (0 - No effect): ABUTH rating ([1]; dose 0.025 kg/ha) | GLXMA rating (Glycine max (GLXMA); dose 0.013 kg/ha) | GLXMA rating (Glycine max (GLXMA); dose 0.025 kg/ha) | MATIN rating ([7]; dose 0.013 kg/ha) | TRZAW rating ([8]; dose 0.013 kg/ha) | TRZAW rating ([8]; dose 0.025 kg/ha) | DIGSA rating ([10]; dose 0.013 kg/ha) | ECHCG rating ([14]; dose 0.013 kg/ha) | ALOMY rating ([15]; dose 0.013 kg/ha) | ORYSA rating (Oryza sativum (ORYSA) [21]; dose 0.013 kg/ha) | ZEAMX rating (Zea mays (ZEAMX) [26]; dose 0.013 kg/ha) | ZEAMX rating (Zea mays (ZEAMX) [26]; dose 0.025 kg/ha) | ZEAMX rating (Zea mays (ZEAMX) [26]; dose 0.1 kg/ha) | HORVW rating (Hordeum vulgare (HORVW) [28]; dose 0.013 kg/ha) | HORVW rating (Hordeum vulgare (HORVW) [28]; dose 0.025 kg/ha) | GALAP rating (Galium aparine (GALAP) [29]; dose 0.013 kg/ha) | GALAP rating (Galium aparine (GALAP) [29]; dose 0.025 kg/ha) | SOLNI rating (Solanum nigrum (SOLNI) [30]; dose 0.013 kg/ha) | LAMPU rating (Lamium purpureum (LAMPU) [31]; dose 0.03 kg/ha) | SOLNI rating (Solanum nigrum (SOLNI) [32]; dose 0.03 kg/ha) | SOLNI rating (Solanum nigrum (SOLNI) [32]; dose 0.1 kg/ha) | SOLNI rating (Solanum nigrum (SOLNI) [32]; dose 0.4 kg/ha)
9 (9 - Complete kill): AMBEL rating ([6]; dose 0.4 kg/ha) | MATIN rating ([7]; dose 0.4 kg/ha) | IPOHE rating ([11]; dose 0.1 kg/ha) | IPOHE rating ([11]; dose 0.4 kg/ha) | DIGSA rating ([12]; dose 0.1 kg/ha) | DIGSA rating ([12]; dose 0.4 kg/ha) | ALOMY rating ([15]; dose 0.4 kg/ha) | LAMPU rating (Lamium purpureum (LAMPU) [17]; dose 0.4 kg/ha) | SOLNI rating (Solanum nigrum (SOLNI) [30]; dose 0.4 kg/ha)
6 (6 - Herbicidal effect): AMBEL rating ([6]; dose 0.1 kg/ha) | DIGSA rating ([10]; dose 0.1 kg/ha) | LAMPU rating (Lamium purpureum (LAMPU) [17]; dose 0.025 kg/ha) | LAMPU rating (Lamium purpureum (LAMPU) [31]; dose 0.4 kg/ha)
good selectivity: selectivity in maize (Zea mays (ZEAMX) [26])
1 (1 - Trace effect): ABUTH rating ([1]; dose 0.1 kg/ha) | AMBEL rating ([6]; dose 0.025 kg/ha) | TRZAW rating ([8]; dose 0.1 kg/ha) | DIGSA rating ([10]; dose 0.025 kg/ha) | ECHCG rating ([14]; dose 0.025 kg/ha) | ALOMY rating ([15]; dose 0.025 kg/ha) | AMBEL rating ([18]; dose 0.03 kg/ha) | ORYSA rating (Oryza sativum (ORYSA) [21]; dose 0.025 kg/ha) | ORYSA rating (Oryza sativum (ORYSA) [21]; dose 0.1 kg/ha) | IPOHE rating ([27]; dose 0.025 kg/ha) | GALAP rating (Galium aparine (GALAP) [29]; dose 0.1 kg/ha) | SOLNI rating (Solanum nigrum (SOLNI) [30]; dose 0.025 kg/ha)
8 (8 - Approaching complete kill): STEME rating (Stellaria media (STEME) [2]; dose 0.4 kg/ha) | SETVI rating (Setaria viridis (SETVI) [3]; dose 0.4 kg/ha) | MATIN rating ([7]; dose 0.1 kg/ha) | DIGSA rating ([10]; dose 0.4 kg/ha) | LAMPU rating (Lamium purpureum (LAMPU) [17]; dose 0.1 kg/ha) | SETVI rating (Setaria viridis (SETVI) [20]; dose 0.4 kg/ha) | MATIN rating ([25]; dose 0.4 kg/ha)
2 (2 - Slight effect): SETVI rating (Setaria viridis (SETVI) [3]; dose 0.013 kg/ha) | SETVI rating (Setaria viridis (SETVI) [3]; dose 0.025 kg/ha) | GLXMA rating (Glycine max (GLXMA); dose 0.1 kg/ha) | ALOMY rating ([4]; dose 0.03 kg/ha) | TRZAW rating ([8]; dose 0.4 kg/ha) | DIGSA rating ([12]; dose 0.03 kg/ha) | TRZAW rating ([13]; dose 0.03 kg/ha) | TRZAW rating ([13]; dose 0.1 kg/ha) | ZEAMX rating (Zea mays (ZEAMX) [16]; dose 0.03 kg/ha) | ZEAMX rating (Zea mays (ZEAMX) [16]; dose 0.1 kg/ha) | AMBEL rating ([18]; dose 0.1 kg/ha) | HORVW rating (Hordeum vulgare (HORVW) [19]; dose 0.03 kg/ha) | SETVI rating (Setaria viridis (SETVI) [20]; dose 0.03 kg/ha) | ORYSA rating (Oryza sativum (ORYSA) [21]; dose 0.4 kg/ha) | ABUTH rating ([23]; dose 0.03 kg/ha) | ABUTH rating ([23]; dose 0.4 kg/ha) | STEME rating (Stellaria media (STEME) [24]; dose 0.03 kg/ha) | MATIN rating ([25]; dose 0.03 kg/ha) | ZEAMX rating (Zea mays (ZEAMX) [26]; dose 0.4 kg/ha) | IPOHE rating ([27]; dose 0.1 kg/ha) | HORVW rating (Hordeum vulgare (HORVW) [28]; dose 0.1 kg/ha) | GALAP rating (Galium aparine (GALAP) [29]; dose 0.4 kg/ha) | LAMPU rating (Lamium purpureum (LAMPU) [31]; dose 0.1 kg/ha)
3 (3 - Moderate effect): GLXMA rating (Glycine max (GLXMA); dose 0.4 kg/ha) | GALAP rating (Galium aparine (GALAP) [5]; dose 0.03 kg/ha) | MATIN rating ([7]; dose 0.025 kg/ha) | ORYSA rating (Oryza sativum (ORYSA) [9]; dose 0.03 kg/ha) | ORYSA rating (Oryza sativum (ORYSA) [9]; dose 0.1 kg/ha) | ORYSA rating (Oryza sativum (ORYSA) [9]; dose 0.4 kg/ha) | IPOHE rating ([11]; dose 0.03 kg/ha) | TRZAW rating ([13]; dose 0.4 kg/ha) | ZEAMX rating (Zea mays (ZEAMX) [16]; dose 0.4 kg/ha) | HORVW rating (Hordeum vulgare (HORVW) [19]; dose 0.1 kg/ha) | HORVW rating (Hordeum vulgare (HORVW) [19]; dose 0.4 kg/ha) | HORVW rating (Hordeum vulgare (HORVW) [28]; dose 0.4 kg/ha)
quite selective: selectivity in soybeans (Glycine max (GLXMA))
5 (5 - Definite injury): STEME rating (Stellaria media (STEME) [2]; dose 0.025 kg/ha) | SETVI rating (Setaria viridis (SETVI) [3]; dose 0.1 kg/ha) | ALOMY rating ([4]; dose 0.4 kg/ha) | GALAP rating (Galium aparine (GALAP) [5]; dose 0.1 kg/ha) | GALAP rating (Galium aparine (GALAP) [5]; dose 0.4 kg/ha) | AMBEL rating ([18]; dose 0.4 kg/ha) | STEME rating (Stellaria media (STEME) [24]; dose 0.1 kg/ha) | STEME rating (Stellaria media (STEME) [24]; dose 0.4 kg/ha) | IPOHE rating ([27]; dose 0.4 kg/ha)
